From US20260174778A1, “SULFONAMIDE COMPOUND, AND PREPARATION METHOD THEREFOR AND USE THEREOF” (SHANGHAI HENLIUS BIOTECH, INC., priority 2023, published 2026)

Tested on: human breast cancer ZR-75-1 cell xenograft tumor
Assay: Anti-tumor effect in ER+KAT6high breast cancer cell xenograft tumor model (Test Example 6)
Assay type: in vivo, Balb/c nude mice
Settings: for T/C / TGI / mean tumor volume: day 34; for body weight changes compared to the PF-8144 group: all doses (0.1, 0.3 mg/kg); for efficacy compared to PF-8144: 0.1 mg/kg and 0.3 mg/kg PO QD
Experimental: Test Example 6: Anti-Tumor Effects of Test Compounds in ER^+KAT6^high Breast Cancer Cell-Xenograft Tumor Model
Assay method: ZR-75-1 cells were subcutaneously inoculated into the right back of each mouse to evaluate the efficacy of the compounds in the subcutaneous xenograft tumor model of ZR-75-1 cells.
• 1. Cell culture: ZR-75-1 cells were cultured as a monolayer in vitro under the following culture conditions: an RPMI 1640 medium supplemented with 10% fetal bovine serum and 1% Anti-anti (Antibiotic-Antimycotic), incubated in an incubator at 37° C. with 5% CO2. The cells were digested with trypsin-EDTA twice a week for passaging as per conventional practice. When the cell saturation reached 80%-90% and the quantity met the requirement, the cells were harvested, counted, and inoculated. • 2. Animals: Balb/c nude mice, female, 6-8 weeks old, weighing 18-22 g. A total of 115 mice were required (72 mice were enrolled). They were provided by Vital River or other qualified suppliers. • 3. Tumor inoculation: Two days before tumor inoculation, 17-beta estradiol tablets (0.18 mg) were subcutaneously administered, and 10 million ZR-75-1 tumor cells+matrigel (total […]) were subcutaneously inoculated into the right back of each mouse. When the mean tumor volume reached about 131 mm^3, the mice were grouped for administration. • 4. Experimental administration: The compounds were dissolved in 5% DMSO+5% Tween 80+90% Saline or 10% DMSO+10% Solutol+80% (10% HPP-CD in saline), and administered intragastrically (PO) daily for five weeks. • 5. Experimental indicators: The experimental indicators were to investigate whether the tumor growth was inhibited or delayed or the tumor was cured. Tumor diameters were measured twice weekly using a vernier caliper. The tumor volume was calculated using the following formula: V=0.5a×b^2, where a and b represent the long diameter and short diameter of the tumor, respectively. • 6. The anti-tumor efficacy of the compounds was evaluated by TGI (%) or relative tumor proliferation rate T/C (%). TGI (%) refers to the tumor growth inhibition rate. Calculation of TGI (%):TGI (%)=[(1−(mean tumor volume at the end of administration in a treatment group—mean tumor volume at the start of administration in the treatment group))/(mean tumor volume at the end of treatment in the solvent control group—mean tumor volume at the start of treatment in the solvent control group)]×100%. The calculation formula for the relative tumor proliferation rate T/C (%) was as follows: T/C %=TRTV/CRTV×100% (TRTV:RTV of the treatment group; CRTV:RTV of the negative control group). The relative tumor volume (RTV) was calculated based on the tumor measurement results using the following formula: RTV=Vt/V0, where V0 represents the mean tumor volume measured at the time of grouping for administration (i.e., PG-DO), and Vt represents the mean tumor volume at a certain measurement. TRTV and CRTV were derived from data measured on the same day.
The mean and standard error of mean (SEM) of tumor volume at each time point for each group were included. The differences in tumor volume and tumor weight among the groups were statistically analyzed. For comparisons among three or more groups, one-way ANOVA was used for analysis. […] The analysis was performed using SPSS 17.0, and p<0.05 was considered to indicate a significant difference.
For comparisons between different doses of the same drug or different drugs at the same dose, two-way ANOVA was used for analysis, and the Bonferroni method was applied for testing. The analysis was performed using GraphPad Prism 9.0, and p<0.05 was considered to indicate a significant difference. On day 34 after the start of administration, the data between different doses of the same drug or different drugs at the same dose were analyzed using one-way ANOVA. […] The analysis was performed using SPSS 17.0, and p<0.05 was considered to indicate a significant difference.

SMILES | T/C (0.1 mg/kg PO QD) [%] | TGI (0.1 mg/kg PO QD) [%] | mean tumor volume (0.1 mg/kg PO QD) [mm^3] | T/C (0.3 mg/kg PO QD) [%] | TGI (0.3 mg/kg PO QD) [%] | mean tumor volume (0.3 mg/kg PO QD) [mm^3] | body weight changes compared to the PF-8144 group | efficacy compared to PF-8144
COc1ccc2c(c1S(=O)(=O)Nc1noc3cc(Cn4cccn4)c(F)c(OC)c13)OCCCO2 [Compound 114, N-(6-((1H-Pyrazol-1-yl)methyl)-5-fluoro-4-methoxybenzo[d]isoxazol-3-yl)-7-methoxy-3,4-dihydro-2H-benzo[b][1,4]dioxepine-6-sulfonamide] | 35.8 | 72.61 | 403 | 10.5 | 101.21 | 119 | no statistically significant difference | 
COc1ccc2c(c1S(=O)(=O)Nc1noc3cc(Cn4cccn4)c(F)c(OC)c13)OCCCN2C [Compound 115, N-(6-((1H-Pyrazol-1-yl)methyl)-5-fluoro-4-methoxybenzo[d]isoxazol-3-yl)-8-methoxy-5-methyl-2,3,4,5-tetrahydrobenzo[b][1,4]oxazepine-9-sulfonamide] | 8.6 | 103.38 | 97 | 2.4 | 110.47 | 27 | no statistically significant difference | significantly superior in efficacy to PF-8144
COc1ccccc1S(=O)(=O)Nc1noc2cc(Cn3cccn3)cc(OC)c12 [PF-8144, reference compound] | 36.2 | 72.2 | 407 | 19.5 | 91.07 | 220 |  | 
COc1ccc2c(c1S(=O)(=O)Nc1noc3cc(Cn4cccn4)c(F)c(OC)c13)OCCC2=O [Compound 42, N-(6-((1H-Pyrazol-1-yl)methyl)-5-fluoro-4-methoxybenzo[d]isoxazol-3-yl)-7-methoxy-4-oxochromane-8-sulfonamide] | 3.9 | 108.67 | 44 | 2.2 | 110.58 | 25 | no statistically significant difference | significantly superior in efficacy to PF-8144
